According to ChEMBL document CHEMBL3407349, “The discovery of Polo-like kinase 4 inhibitors: identification of (1R,2S).2-(3-((E).4-(((cis).2,6-dimethylmorpholino)methyl)styryl). 1H.indazol-6-yl)-5'-methoxyspiro[cyclopropane-1,3'-indolin]-2'-one (CFI-400945) as a potent, orally active antitumor agent” (J Med Chem, 2015):

What was measured:
[1] = biological target: T1, Serine/threonine-protein kinase PLK4 (Homo sapiens, UniProt O00444); assay: Inhibition of PLK4 (unknown origin) by ELISA
T1 sequence (O00444 whole entry): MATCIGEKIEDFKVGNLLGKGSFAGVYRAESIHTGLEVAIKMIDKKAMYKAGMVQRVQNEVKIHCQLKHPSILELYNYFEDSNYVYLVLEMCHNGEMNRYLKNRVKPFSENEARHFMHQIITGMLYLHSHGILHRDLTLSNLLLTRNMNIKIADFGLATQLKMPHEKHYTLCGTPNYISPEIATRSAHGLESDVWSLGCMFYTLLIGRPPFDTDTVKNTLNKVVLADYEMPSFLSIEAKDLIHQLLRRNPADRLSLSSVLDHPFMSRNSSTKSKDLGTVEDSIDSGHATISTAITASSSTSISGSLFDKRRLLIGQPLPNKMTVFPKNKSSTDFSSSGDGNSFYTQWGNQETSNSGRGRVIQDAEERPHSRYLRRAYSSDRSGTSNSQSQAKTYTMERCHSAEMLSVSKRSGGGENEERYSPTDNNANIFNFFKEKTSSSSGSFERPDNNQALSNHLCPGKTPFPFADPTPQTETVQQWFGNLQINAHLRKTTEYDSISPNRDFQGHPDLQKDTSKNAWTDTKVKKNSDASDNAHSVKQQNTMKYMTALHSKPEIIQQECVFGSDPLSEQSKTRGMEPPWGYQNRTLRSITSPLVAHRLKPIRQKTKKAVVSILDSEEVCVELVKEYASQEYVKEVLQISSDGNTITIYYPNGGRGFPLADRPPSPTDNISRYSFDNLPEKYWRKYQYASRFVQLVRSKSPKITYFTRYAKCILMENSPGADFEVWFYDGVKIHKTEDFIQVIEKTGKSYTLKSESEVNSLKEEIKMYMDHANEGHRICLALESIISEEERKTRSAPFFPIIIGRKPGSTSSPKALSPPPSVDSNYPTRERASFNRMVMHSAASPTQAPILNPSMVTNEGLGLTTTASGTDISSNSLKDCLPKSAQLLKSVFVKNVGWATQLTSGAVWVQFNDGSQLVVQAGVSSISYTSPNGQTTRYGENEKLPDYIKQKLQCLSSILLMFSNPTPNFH

[2] = tested on: MDA-MB-468; assay: Growth inhibition of human MDA-MB-468 cells after 5 days by SRB assay; format: functional
[3] = tested on: MCF7; assay: Growth inhibition of human MCF7 cells after 5 days by SRB assay; format: functional
[4] = tested on: HCC1954; assay: Growth inhibition of human HCC1954 cells after 5 days by SRB assay; format: functional
[5] = tested on: MDA-MB-231; assay: Growth inhibition of human MDA-MB-231 cells after 5 days by SRB assay; format: functional
[6] = Growth inhibition of human HMEC cells after 5 days by SRB assay; format: cell-based; conditions: HMEC cells
[7] = biological target: T2, Cytochrome P450 1A2 (Homo sapiens, UniProt P05177); assay: Inhibition of CYP1A2 (unknown origin) by fluorescence assay; format: ADME
T2 sequence (P05177 whole entry): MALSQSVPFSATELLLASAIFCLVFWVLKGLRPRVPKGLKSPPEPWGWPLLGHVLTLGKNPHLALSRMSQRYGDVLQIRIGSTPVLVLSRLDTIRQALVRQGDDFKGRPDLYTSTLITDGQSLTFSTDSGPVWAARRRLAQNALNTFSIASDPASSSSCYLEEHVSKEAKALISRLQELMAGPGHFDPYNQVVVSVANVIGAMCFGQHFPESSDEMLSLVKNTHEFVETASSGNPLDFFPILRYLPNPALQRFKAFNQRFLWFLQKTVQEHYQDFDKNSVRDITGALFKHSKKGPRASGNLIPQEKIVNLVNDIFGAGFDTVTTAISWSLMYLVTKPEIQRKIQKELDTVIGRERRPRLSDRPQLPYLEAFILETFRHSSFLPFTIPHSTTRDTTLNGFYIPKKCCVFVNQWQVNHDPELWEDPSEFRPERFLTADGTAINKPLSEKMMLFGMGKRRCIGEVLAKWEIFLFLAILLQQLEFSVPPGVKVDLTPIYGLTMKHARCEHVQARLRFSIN

[8] = biological target: Cytochrome P450 2D6 (Homo sapiens, UniProt P10635); assay: Inhibition of CYP2D6 (unknown origin) by fluorescence assay; format: ADME
[9] = biological target: Cytochrome P450 2C9 (Homo sapiens, UniProt P11712); assay: Inhibition of CYP2C9 (unknown origin) by fluorescence assay
[10] = biological target: Cytochrome P450 2C19 (Homo sapiens, UniProt P33261); assay: Inhibition of CYP2C19 (unknown origin) by fluorescence assay
[11] = biological target: T3, Cytochrome P450 3A4 (Homo sapiens, UniProt P08684); assay: Inhibition of CYP3A4 (unknown origin) using DBF as substrate by fluorescence assay
[12] = biological target: T3, Cytochrome P450 3A4; assay: Inhibition of CYP3A4 (unknown origin) using BFC as substrate by fluorescence assay
[13] = Half life in mouse liver microsomes
[14] = Half life in human liver microsomes
[15] = Cmax in athymic CD1 nude mouse at 25 mg/kg, po by LC/MS/MS analysis; format: ADME, organism-based; design: dose 25 mg/kg, route oral; conditions: in vivo
[16] = AUC in athymic CD1 nude mouse at 25 mg/kg, po by LC/MS/MS analysis; format: ADME, organism-based; design: dose 25 mg/kg, route oral; conditions: plasma
[17] = Homo sapiens, MDA-MB-468, 120 h
[18] = Homo sapiens, MDA-MB-231, 120 h

Sequence of Cytochrome P450 2C19 (P33261 whole entry): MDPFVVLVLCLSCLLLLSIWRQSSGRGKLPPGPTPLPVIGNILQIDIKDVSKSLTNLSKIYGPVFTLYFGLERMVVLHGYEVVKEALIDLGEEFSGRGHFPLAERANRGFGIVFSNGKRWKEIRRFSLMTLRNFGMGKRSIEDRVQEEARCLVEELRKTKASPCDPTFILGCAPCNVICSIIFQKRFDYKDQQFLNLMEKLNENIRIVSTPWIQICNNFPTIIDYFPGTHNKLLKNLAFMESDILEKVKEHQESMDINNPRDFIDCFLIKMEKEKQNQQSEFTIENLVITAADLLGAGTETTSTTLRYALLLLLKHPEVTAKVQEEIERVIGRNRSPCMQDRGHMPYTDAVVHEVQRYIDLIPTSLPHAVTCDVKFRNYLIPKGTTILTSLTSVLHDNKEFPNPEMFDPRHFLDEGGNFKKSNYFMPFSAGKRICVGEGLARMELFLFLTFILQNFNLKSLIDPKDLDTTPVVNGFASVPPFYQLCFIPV
Sequence of Cytochrome P450 2D6 (P10635 whole entry): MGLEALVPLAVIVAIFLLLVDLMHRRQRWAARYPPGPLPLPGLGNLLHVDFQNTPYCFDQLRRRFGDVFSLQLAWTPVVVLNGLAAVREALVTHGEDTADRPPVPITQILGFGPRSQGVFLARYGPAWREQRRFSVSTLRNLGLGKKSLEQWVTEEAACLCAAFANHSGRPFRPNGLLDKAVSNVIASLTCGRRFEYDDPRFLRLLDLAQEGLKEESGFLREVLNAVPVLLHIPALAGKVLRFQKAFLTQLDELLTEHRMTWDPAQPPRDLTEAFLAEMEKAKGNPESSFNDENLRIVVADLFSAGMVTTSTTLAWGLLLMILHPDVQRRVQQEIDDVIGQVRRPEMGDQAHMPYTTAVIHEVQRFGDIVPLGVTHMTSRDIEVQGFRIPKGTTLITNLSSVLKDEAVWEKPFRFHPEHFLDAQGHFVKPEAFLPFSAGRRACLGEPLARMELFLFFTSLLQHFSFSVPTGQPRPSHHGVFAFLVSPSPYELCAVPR
Sequence of Cytochrome P450 2C9 (P11712 whole entry): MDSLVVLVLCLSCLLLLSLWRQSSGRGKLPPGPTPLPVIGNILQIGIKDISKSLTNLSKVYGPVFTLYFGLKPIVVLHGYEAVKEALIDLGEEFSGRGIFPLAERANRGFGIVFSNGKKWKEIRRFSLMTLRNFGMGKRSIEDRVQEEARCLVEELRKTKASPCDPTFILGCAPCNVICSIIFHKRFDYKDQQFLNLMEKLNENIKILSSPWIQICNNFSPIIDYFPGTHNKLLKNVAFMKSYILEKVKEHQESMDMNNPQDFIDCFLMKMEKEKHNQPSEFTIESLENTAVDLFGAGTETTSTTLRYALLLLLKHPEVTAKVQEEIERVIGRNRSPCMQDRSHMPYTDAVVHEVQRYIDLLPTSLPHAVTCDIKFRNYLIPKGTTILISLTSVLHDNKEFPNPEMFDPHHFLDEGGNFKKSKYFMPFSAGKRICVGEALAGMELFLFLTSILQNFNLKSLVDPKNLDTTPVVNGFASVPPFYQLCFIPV
T3 sequence (P08684 whole entry): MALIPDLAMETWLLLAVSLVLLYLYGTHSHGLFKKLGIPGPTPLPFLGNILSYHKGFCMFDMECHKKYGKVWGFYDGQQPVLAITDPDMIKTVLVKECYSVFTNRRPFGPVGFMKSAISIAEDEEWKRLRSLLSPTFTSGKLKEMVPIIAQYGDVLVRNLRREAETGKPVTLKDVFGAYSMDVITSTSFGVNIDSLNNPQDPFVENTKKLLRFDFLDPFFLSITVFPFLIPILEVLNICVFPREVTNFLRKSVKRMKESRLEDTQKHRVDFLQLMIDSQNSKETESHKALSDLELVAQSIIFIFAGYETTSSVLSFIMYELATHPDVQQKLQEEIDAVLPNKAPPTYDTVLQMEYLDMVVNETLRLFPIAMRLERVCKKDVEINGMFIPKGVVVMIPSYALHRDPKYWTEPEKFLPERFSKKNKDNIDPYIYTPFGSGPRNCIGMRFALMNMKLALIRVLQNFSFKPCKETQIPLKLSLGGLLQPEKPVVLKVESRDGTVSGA

| Structure (SMILES) | GI50 [2, 17] | GI50 ([3]; Homo sapiens, MCF7, 120 h) | GI50 ([4]; Homo sapiens, HCC1954, 120 h) | GI50 [5, 18] | GI50 at 120 h [6] | inhibition (INH) [7] | inhibition (INH) [8] | IC50 [9] | IC50 [10] | Cmax [15] | AUC [16] | also measured |
| --- | --- | --- | --- | --- | --- | --- | --- | --- | --- | --- | --- | --- |
| O=C1Nc2ccccc2[C@]12C[C@H]2c1ccc2c(/C=C/c3ccc(CN4CC5CCC(C4)O5)cc3)n[nH]c2c1 | 0.061 µM | 0.17 µM | 0.053 µM | 4.1 µM |  |  |  |  |  |  |  | IC50 [1]: 0.0052 µM |
| CN(C)Cc1ccc(/C=C/c2n[nH]c3cc([C@@H]4C[C@@]45C(=O)Nc4ccccc45)ccc23)cc1 (racemic) |  |  | 1.9 µM |  | 28 µM |  |  |  |  |  |  | GI50 [5]: 12 µM |
| C[C@@H]1CN(Cc2ccc(/C=C/c3n[nH]c4cc([C@@H]5C[C@@]56C(=O)Nc5ccccc56)ccc34)cc2)C[C@H](C)N1C | 0.01 µM | 2.5 µM | 1.3 µM | 0.5 µM |  |  |  |  |  |  |  | IC50 [1]: 0.00064 µM |
| CN(C)Cc1ccc(/C=C/c2n[nH]c3cc([C@@H]4C[C@@]45C(=O)N(C)c4ccccc45)ccc23)cc1 | 0.002 µM | 0.0015 µM | 0.007 µM | 0.75 µM | 8 µM | Not Active | Not Active | 2.6 µM | 1.9 µM | 510 ng/mL | 1100 ng·h/mL | IC50 [11]: > 1 µM; IC50 [12]: 2.3 µM; half-life ([13]; microsomes): 12 min; half-life ([14]; microsomes): 44 min |
| C[C@@H]1CN(Cc2cccc(/C=C/c3n[nH]c4cc([C@@H]5C[C@@]56C(=O)Nc5ccccc56)ccc34)c2)C[C@H](C)O1 | 1.1 µM | 1.3 µM | 0.084 µM | 9.6 µM |  |  |  |  |  |  |  | IC50 [1]: 0.02 µM |
| COc1ccc2c(c1)[C@]1(C[C@H]1c1ccc3c(/C=C/c4ccc(CN5CCOCC5)cc4)n[nH]c3c1)C(=O)N2 (racemic) |  |  |  |  |  |  |  |  |  |  |  | GI50 [2]: 0.006 µM; GI50 [3]: 0.01 µM; GI50 [4]: 7.3 µM; GI50 [5]: 14 µM |
| O=C1Nc2ccccc2[C@]12C[C@H]2c1ccc2c(/C=C/c3cccnc3)n[nH]c2c1 | 0.06 µM | 2 µM | 7.5 µM | 1 µM | 4.4 µM |  |  |  |  |  |  |  |
| O=C1Nc2ccccc2[C@]12C[C@H]2c1ccc2c(/C=C/c3cccc(CN4CCOCC4)c3)n[nH]c2c1 | 0.13 µM | 0.35 µM | 1.6 µM | 2.2 µM | 50 µM |  |  |  |  |  |  |  |
| COc1ccc2c(c1)[C@]1(C[C@H]1c1ccc3c(/C=C/c4ccc(CN(C)C)cc4)n[nH]c3c1)C(=O)N2 | < 0.001 µM | 0.0001 µM | 5 µM | 2.8 µM | 41 µM | Not Active | Not Active | 3.5 µM | 2 µM | 300 ng/mL | 640 ng·h/mL | IC50 [11]: 7.5 µM; half-life ([13]; liver microsomes): 22 min; half-life ([14]; liver microsomes): 36 min |
| COc1ccc2c(c1)[C@]1(C[C@H]1c1ccc3c(/C=C/c4ccc(CN5CCCCC5)cc4)n[nH]c3c1)C(=O)N2 | < 0.001 µM | < 0.001 µM | 5 µM | 1.6 µM | 50 µM | Not Active | Not Active | 3.4 µM | 1.4 µM | 510 ng/mL | 1300 ng·h/mL | IC50 [11]: 5.4 µM; IC50 [12]: > 1 µM; half-life ([13]; liver microsomes): 40 min; half-life ([14]; liver microsomes): 49 min |
| O=C1Nc2ccccc2[C@]12C[C@H]2c1ccc2c(/C=C/c3ccc(CN4CCCCC4)cc3)n[nH]c2c1 | < 0.001 µM | < 0.001 µM | 5 µM | 2.2 µM | 20 µM |  |  |  |  |  |  |  |
| COc1ccc2c(c1)[C@]1(C[C@H]1c1ccc3c(/C=C/c4ccc(N5CCN(C)CC5)nc4)n[nH]c3c1)C(=O)N2 | < 0.001 µM | < 0.001 µM | 0.002 µM | 2.6 µM | 47 µM | Not Active | Not Active | 2 µM | 1.5 µM | 200 ng/mL | 380 ng·h/mL | IC50 [11]: 5.6 µM; IC50 [12]: 10 µM; half-life ([13]; liver microsomes): 6 min; half-life ([14]; liver microsomes): 11 min |
| CN1CCC(Oc2ccc(/C=C/c3n[nH]c4cc([C@@H]5C[C@@]56C(=O)Nc5ccccc56)ccc34)cc2)CC1 | 0.002 µM | 2.4 µM | 0.77 µM | 0.92 µM |  |  |  |  |  |  |  |  |
| O=C1Nc2ccccc2[C@]12C[C@H]2c1ccc2c(/C=C/c3ccc(CN4CC[C@@H](F)C4)cc3)n[nH]c2c1 | 0.0067 µM | 34 µM | 0.022 µM | 5.6 µM | 7.9 µM | Not Active | Not Active | 0.9 µM | 1.5 µM | 790 ng/mL | 1800 ng·h/mL | half-life ([13]; liver microsomes): 17 min; half-life ([14]; liver microsomes): 52 min |
| O=C1Nc2ccccc2[C@]12C[C@H]2c1ccc2c(/C=C/c3ccc(CN4CCCOCC4)cc3)n[nH]c2c1 | 0.002 µM | 1 µM | 1.8 µM | 3 µM |  |  |  |  |  |  |  |  |
| O=C1Nc2ccccc2[C@]12C[C@H]2c1ccc2c(/C=C/c3ccc(CN4CCCC4)cc3)n[nH]c2c1 | < 0.001 µM | 0.37 µM | 0.026 µM | 0.25 µM | 3.6 µM |  |  |  |  |  |  |  |
